This is an account of results in patent publication US6136784A, “Amylin agonist pharmaceutical compositions containing insulin” (Amylin Pharmaceuticals, Inc., priority 1998, dated 2000).

Where two headings read alike, the source gives them in different places. Positions of bridges follow the written chain, without caps; N, C: chain ends. No end group written: not given here.

Data set [1] deals with insulin-stimulated glycogen synthesis in soleus muscle. The data set can be described thus: Soleus muscle assay (inhibition of insulin-stimulated glycogen synthesis). Type of data set: cell-based, rat. The following applies: 7.1 nM insulin. Here is the method: Assays of biological activity of amylin agonists in the soleus muscle may be performed using previously described methods (Leighton, B. and Cooper, Nature, 335:632-635 (1988); Cooper, et al., Proc. Natl. Acad. Sci. USA 85:7763-7766 (1988)), in which amylin agonist activity may be assessed by measuring the inhibition of insulin-stimulated glycogen synthesis. The soleus muscle assay is also described below.
Determination of amylin agonist activity of compounds was carried out using the soleus muscle assay as follows. Male Harlan Sprague-Dawley rats of approximately 200 g mass were used in order to maintain mass of the split soleus muscle less than 40 mg. The animals were fasted for 4 hours prior to sacrifice by decapitation. The skin was stripped from the lower limb which was then pinned out on corkboard. The tendo achilles was cut just above os calcis and m. gastrocnemius reflected out from the posterior aspect of the tibia. M. soleus, a small 15-20 mm long, 0.5 mm thick flat muscle on the bone surface of m. gastrocnemius was then stripped clear and the perimysium cleaned off using fine scissors and forceps. […]
^14 C-glycogen determination was performed in a 7 mL scintillation vial. […] The remaining glycogen was redissolved in 1 mL water and 4 mL scintillation fluid and counted for ^14 C. […]

The conditions of data set [2]: in vivo, sc; cited from earlier work.
The test system of data set [3] is Harlan Sprague Dawley rats. Nature of the data set: Tritiated glucose gastric emptying assay. It is filed as in vivo, rat. The following applies: sc 1 minute before gavage of tritiated glucose. The source says:
(§1) Methods of measuring the rate of gastric emptying are disclosed in, for example, Young et al., Diabetolocia, 38(6):642-648 (1995). In a phenol red method, which is described below, conscious rats receive by gavage an acoloric gel containing methyl cellulose and a phenol red indicator. Twenty minutes after gavage, animals are anesthetized using halothane, the stomach exposed and clamped at the pyloric and lower esophageal sphincters, removed and opened into an alkaline solution. Stomach content may be derived from the intensity of the phenol red in the alkaline solution, measured by absorbance at a wavelength of 560 nm. In a tritiated glucose method, which is described in Example 9 below, conscious rats are gavaged with tritiated glucose in water. The rats are gently restrained by the tail, the tip of which is anesthetized using lidocaine. Tritium in the plasma separated from tail blood is collected at various timepoints and detected in a beta counter. Test compounds are normally administered about one minute before gavage.
Conscious, non-fasted, Harlan Sprague Dawley rats were restrained by the tail, the tip of which was anesthetized using 2% lidocaine. Tritium in plasma separated from tail blood collected 0, 15, 30, 60, 90 and 120 minutes after gavage was detected in a beta counter. […]

In data set [4] the test system is Harlan Sprague Dawley (non-diabetic) rats. The data set can be described thus: Phenol red gastric emptying assay, normal rats. Type of data set: in vivo, rat. The settings on record: sc bolus 5 minutes before gavage, ±0.19 log units.
Text: as §1, with “In a tritiated glucose method, which is described in Example 9 below, conscious rats are gavaged with tritiated glucose in water. The rats are gently restrained by the tail, the tip of which is anesthetized using lidocaine.” left out, “Test compounds are normally administered about one minute before gavage.” left out
(§2) Gastric emptying was measured using a modification (Plourde et al., Life Sci. 53:857-862 (1993)) of the original method of Scarpignato et al. (Arch. Int. Pharmacodyn. Ther. 246:286-295 (1980)). […] Stomach content was derived from the intensity of the phenol red in the alkaline solution, measured by absorbance at a wavelength of 560 nm. […] In other experiments, particulate gastric contents were centrifuged to clear the solution for absorbance measurements. Where the diluted gastric contents remained turbid, the spectroscopic absorbance due to phenol red was derived as the difference between that present in alkaline vs acetified diluent. […]

The next data set relates to diabetic BB rats. Nature of the data set: Phenol red gastric emptying assay, diabetic rats. It is filed as in vivo, rat. The following applies: sc bolus 5 minutes before gavage, ±0.18 log units.
Text: as §1, with “In a tritiated glucose method, which is described in Example 9 below, conscious rats are gavaged with tritiated glucose in water. The rats are gently restrained by the tail, the tip of which is anesthetized using lidocaine.” left out, “Test compounds are normally administered about one minute before gavage.” left out
as §2

The conditions of data set [5]: intravenous infusion; cited from earlier work.
For data set [6] the following is noted: 28 days, cited from earlier work.
The conditions of data set [7]: 30-microgram doses four times per day, 14 days; p=0.003; cited from earlier work.
The conditions of data set [8]: self injected three times per day, 14 days, plus usual insulin; cited from earlier work.
For data set [9] the following is noted: cited from earlier work.

As usually defined, the EC50 is the concentration that produces a half-maximal response. Take ^25,28 Pro-h-Amylin [compound 6]: in data set [1], it took 13.2 nM to reach a half-maximal effect (EC50). This lies in the double-digit nanomolar range.

“soluble insulin: soluble insulin given by subcutaneous injection”: in data set [2], the “Duration of action (lasts for)” value is 4 to 6 h and the “Time to absorption following subcutaneous injection” value is 30 min.

Turning to rat amylin, in data set [3], the ED50 derived from the logistic fit (plasma tritium AUC over 30 minutes) was 0.35 µg. In addition, the ED50 for inhibition of gastric emptying in [4] stood at 0.43 µg; in the data set on diabetic BB rats, 2.2 µg.

As for ^25,28,29 Pro-h-Amylin [compound 12], in data set [5], the Post-meal blood-glucose concentrations entry was “significantly reduced”. Also, the Lowering of fructosamine in data set [6] (30 micrograms four times a day, p=0.029) is 17.5 µmol/L; in data set [6] (60 micrograms four times a day, p=0.001) it was 22.6 µmol/L; in [6] (60 micrograms three times a day, p=0.003) it was 24.1 µmol/L. Also, the “Reduction of average blood-glucose concentrations over a 24-hour observation period compared to placebo” value in [7] is 35 mg/dL. Moreover, in data set [8], the “Blood-glucose concentrations after a test meal compared to placebo” value is reported as “statistically significant reduction”. In addition, the Tolerability result in data set [9] (30-microgram dose) is “well tolerated”. For the same substance, the “Lowering of fructosamine compared to placebo” value in data set [9] (30-microgram doses four times per day, 28 days, p=0.003) was 33 µmol/L. Moreover, in [9] (30-microgram doses four times per day, 28 days, p=0.009), the “Lowering of 24-hour average blood-glucose concentrations compared to placebo” value is 31 mg/dL.

In data set [1], “^2,7 Cyclo-[^2 Asp,^7 Lys]-h-Amylin (KDNTATKATQRLANFLVHSSNNFGAILSSTNVGSNTY; lactam 2-7; ends not checked; UniProt P10997 34-70, looked up, variant C2D C7K) [compound 2]” displayed an EC50 of 6.62 nM.
